Results reported in ChEMBL document CHEMBL1149069, “SB-202742, a novel beta-lactamase inhibitor isolated from Spondias mombin” (J Nat Prod, 1994).
Activity calls are given as the source filed them. The calls are words filed in the database; no cut-off is given here.

Biological target: Beta-lactamase TEM-2 (Escherichia coli) (UniProt P62593)
Experiment: Inhibition of Escherichia coli W3110 beta-lactamase TEM2 assessed as inhibition of nitrocefin hydrolysis at 1 ug/ml pre-incubated for 5 mins by microtiter plate assay

`CC/C=C\C/C=C\C/C=C\CCCCCCCc1cccc(O)c1C(=O)O` was tested. Which Activity did it give?
Its Activity is “Active”.
